Test results as given in publication PMC3591457, “Biodistribution and Elimination Study of Fluorine-18 Labeled N^ε-Carboxymethyl-Lysine following Intragastric and Intravenous Administration” (PLoS ONE, 2013).
Several values for one entry are separate records, joined by “and”; a condition that tells them apart may be missing. Equal entries are not always repeated.

Experiments:
[1] = Biodistribution after intravenous administration; assay type: in vivo, ICR mice; details: for Uptake in brain, percentage of injected dose per whole tissue / Uptake in heart, percentage of injected dose per whole tissue / Uptake in intestines, percentage of injected dose per whole tissue / Uptake in kidneys, percentage of injected dose per whole tissue / Uptake in liver, percentage of injected dose per whole tissue / Uptake in lungs, percentage of injected dose per whole tissue / Uptake in muscles, percentage of injected dose per whole tissue / Uptake in pancreas, percentage of injected dose per whole tissue / Uptake in stomach, percentage of injected dose per whole tissue / Uptake in bladder, percentage of injected dose per whole tissue: intravenous administration, n=3, mean ± SD
Procedure: The biodistribution of ^18F-CML was studied in eighteen young male ICR mice with a weight range of 18–20 g. Nine mice were used for intravenous administration and the other nine mice were used for intragastric administration.
For intravenous administration, ^18F-CML was injected into a lateral tail vein of the animals under light ether anesthesia. The injection volume (2–3 MBq; radiochemical purity 96%) was 0.1 mL. For intragastric administration, 1.5 MBq of ^18F-labeled CML was given via gastrointestinal tract tract.
The mice were sacrificed at 5, 60, and 120 min after administration of ^18F-CML (three mice at each time point). The animals were sacrificed by heart puncture under ether anaesthesia. The tissues and organs of interest were isolated and counted in a well-type γ counter. Additionally, 200 µL of blood was taken from the carotid artery. The distributions of ^18F-CML in different tissues and organs were calculated and expressed as the percent uptake of the injection dose per whole tissue (% ID).

[2] = microPET imaging after intragastric administration; assay type: in vivo, ICR mice
Procedure: Male ICR mice weighing 18–20 g (7–8 wks old, n = 4) were kept fasting for 14 h […] and had free access to water before the experiments that followed. For the experiment, the mice were anesthetized and unconsciousness was maintained with a mixture of 1.5% isoflurane and nitrous oxide∶oxygen (7∶3). Approximately 3.0 MBq (80 µCi) of ^18F-labeled CML was administered via the gastrointestinal route. Five-minute static PET images were acquired at 15, 30, 60, 120 and 150 min post-injection.
Dynamic PET studies were performed using a dedicated microPET scanner for small animals. For imaging studies, the animals were under isoflurane anesthesia and then positioned and immobilized supine with their medial axis parallel to the axial axis of the scanner with the thorax and abdominal region (organs of interest: heart, liver, and kidneys) in the center of the field of view.
Approximately 5 min was needed to set the position of the animals after intragastric or intravenous administration of the drug solution containing ^18F-CML. Then, the emission data were acquired for 120 min. An attenuation map was created for each mouse by intravenously administering the residual ^18F-CML after acquisition of the emission data. […] The quantitative analyses of the hepatic and renal distributions of ^18F-CML were performed using ASIPro installed in the PET system.

[3] = ^18F-CML in vivo stability in mice (radio-HPLC of plasma and urine); design: species or system ICR mice
Procedure: The in vivo stability of the ^18F-CML in mice was determined using arterial blood and urine samples. Male ICR mice (n = 3) were anaesthetised with 2% vaporized isoflurane and injected with a dose of approximately 3.7 MBq of ^18F-CML in 250 µL of normal saline via the tail vein. […] Blood samples were removed immediately and centrifuged at 12,000 rpm for 2 min at 4°C to separate the plasma. The urinary bladder was carefully excised, and the urine was collected from the bladder. The plasma (30 µL) and an aliquot of the urine sample (20 µL) was injected into an HPLC column to analyze the in vivo stability of ^18F-CML in the mice.
The HPLC analysis method was based on using trichloroacetic acid to precipitation plasma proteins, which were subsequently separated by reversed-phase column liquid chromatography using a 150 mm×4.6 mm C18 column with a mobile phase of […] acetonitrile and pure water (55%/45%) and detected based on UV absorbance at 254 nm. Radioactivity signal was detected by a radiochromatography detector (PTW, Freiburg, Germany). The ratio of unchanged ^18F-CML to total radioactivity on the HPLC chromatogram was calculated and expressed as a percentage.

[4] = ^18F-CML in vitro stability (RCP by paper chromatography at room temperature); assay type: physicochemical; details: 6 h at room temperature (26±2°C)
Procedure: The in vitro stability of ^18F-CML was studied by storing the freshly prepared complex at room temperature (26±2°C) for a period of 6 h. The RCP was evaluated every 0.5 h using paper chromatography to determine its in vitro stability.

HepG2 cells = experiment: Cell uptake of ^18F-CML and native CML in HepG2 cells; assay type: cell-based; details: n=3, P<0.01, blocking with non-radioactive CML
Procedure: To compare the different bioactivities of CML and ^18F-CML, two cell lines were evaluated for their capacity to take up native CML and the fluorobenzoylated derivative ^18F-CML. RAW264.7 macrophages and HepG2 liver cells were cultured in DMEM/LOWGLUCOSE, supplemented with 10% fetal bovine serum (FBS), 4.0 mmol/L L-glutamine, 110 mg/L sodium pyruvate, 100 U/mL penicillin, and 100 mg/L streptomycin at 37°C and 5% CO2.
For ^18F-CML cell uptake studies, RAW264.7 cells and HepG2 cells were seeded into 24-well plates at a density of 4×10^5 cells per well. Radio-tracer ^18F-CML (0.5 µCi/well, 3 µmol/mL) was incubated in a 37°C water bath for 15, 30, 60, and 120 min. At each time point the cells were washed 3 times with phosphate-buffered saline (PBS). The supernatant, washing-up liquid (unbound activity) and the pellet (cell-bound activity) were transferred to new tubes. Triplicates of the counting tubes containing supernatant and cell pellet were counted individually using a gamma counter for 1 min. For the blocking experiment, the uptake was carried out in the presence of the non-radioactive CML(10 µmol/mL) and processed similarly as described above. The uptake (%) of radio-tracer into the cell was determined using a gamma counter according to the following equation: [drawing 1]
For CML cell uptake ratio studies, unaltered CML (10 µmol/mL) was added to RAW264.7 and HepG2 cell pellets individually. The total proteins of each cell line were initially extracted from the lysates of 4×10^5 cells. […] The supernatants were purified and detected usingby the method described by Drusch et al., which uses an RP-HPLC method with an ortho-phthaldialdehyde (OPA)-derivatisation and fluorescence detection suited for automation. The HPLC analysis method used a 250 mm×4.6 mm C18 column (GROM-SIL 100 ODS-0 AB, Herrenberg, Germany) and detected the fluorescence excitation at 340 nm and emission at 455 nm. The peak identification of CML was confirmed by the retention time and standard addition and was quantified using an external standard. The amount of CML was calculated and expressed as a percentage.

[5] = intravenous, 60 min post-injection

Uptake in brain, percentage of injected dose per whole tissue ([1]; 5 min): 3.04±0.02 %ID | Uptake in heart, percentage of injected dose per whole tissue ([1]; 5 min): 11.15±0.05 %ID | Uptake in intestines, percentage of injected dose per whole tissue ([1]; 5 min): 1.02±0.05 %ID | Uptake in kidneys, percentage of injected dose per whole tissue ([1]; 5 min): 29.30 %ID and 29.30±2.05 %ID | Uptake in liver, percentage of injected dose per whole tissue ([1]; 5 min): 17.28±2.04 %ID | Uptake in lungs, percentage of injected dose per whole tissue ([1]; 5 min): 1.65±0.05 %ID | Uptake in muscles, percentage of injected dose per whole tissue ([1]; 5 min): 8.02±0.82 %ID | Uptake in pancreas, percentage of injected dose per whole tissue ([1]; 5 min): 0.9±0.04 %ID | Uptake in stomach, percentage of injected dose per whole tissue ([1]; 5 min): 0.35±0.02 %ID | Uptake in bladder, percentage of injected dose per whole tissue ([1]; 60 min): 41.28±3.50 %ID | Uptake in brain, percentage of injected dose per whole tissue ([1]; 60 min): 0.38±0.01 %ID | Uptake in heart, percentage of injected dose per whole tissue ([1]; 60 min): 5.05±0.01 %ID | Uptake in intestines, percentage of injected dose per whole tissue ([1]; 60 min): 2.35±0.01 %ID | Uptake in kidneys, percentage of injected dose per whole tissue ([1]; 60 min): 35.6 %ID and 35.6±4.06 %ID | Uptake in liver, percentage of injected dose per whole tissue ([1]; 60 min): 9.72±1.62 %ID | Uptake in lungs, percentage of injected dose per whole tissue ([1]; 60 min): 1.12±0.02 %ID | Uptake in muscles, percentage of injected dose per whole tissue ([1]; 60 min): 5.17±1.12 %ID | Uptake in pancreas, percentage of injected dose per whole tissue ([1]; 60 min): 0.01±0.0 %ID | Uptake in stomach, percentage of injected dose per whole tissue ([1]; 60 min): 0.02±0.01 %ID | Uptake in bladder, percentage of injected dose per whole tissue ([1]; 120 min): 72.30±5.20 %ID | Uptake in brain, percentage of injected dose per whole tissue ([1]; 120 min): 0.07±0.00 %ID | Uptake in heart, percentage of injected dose per whole tissue ([1]; 120 min): 1.03±0.00 %ID | Uptake in intestines, percentage of injected dose per whole tissue ([1]; 120 min): 0.5±0.00 %ID | Uptake in kidneys, percentage of injected dose per whole tissue ([1]; 120 min): 18.1 %ID and 18.1±2.65 %ID | Uptake in liver, percentage of injected dose per whole tissue ([1]; 120 min): 3.28±0.05 %ID | Uptake in lungs, percentage of injected dose per whole tissue ([1]; 120 min): 0.25±0.00 %ID | Uptake in muscles, percentage of injected dose per whole tissue ([1]; 120 min): 3.02±0.82 %ID | Uptake in pancreas, percentage of injected dose per whole tissue ([1]; 120 min): 0.00±0.02 %ID | Uptake in stomach, percentage of injected dose per whole tissue ([1]; 120 min): 0.01±0.00 %ID | Injected dose found in the urine and stomach, lungs, liver and intestines [1, 5]: less than 50% | Remaining radioactivity located in the circulating blood [1, 5]: approximately 8% | Localization of radioactivity (PET) ([2]; first 15 min after administration via stomach tube): completely localized in the stomach | Resorption of radioactivity from the small intestine (PET) ([2]; within 2 h after application via stomach tube): not observed | Metabolic products in the urine (radio HPLC) ([3]; 40 min after injection): No metabolic products were observed | Radioactivity in an unchanged form in the plasma and urine (in vivo stability) ([3]; 60 min after tail vein injection, RP-HPLC): more than 98% | Radiochemical purity (RCP) retained on storage (in vitro stability) [4]: 98.2±0.3%
SMILES: O=C(O)CNCCCCC(NC(=O)c1ccc([18F])cc1)C(=O)O (stereo not shown) [^18F-CML]
Uptake of radioactivity in untreated cells relative to unlabelled CML-treated (blocked) cells (HepG2 cells): 1.6 fold
